In publication PMC8480782, “Efficient Dimerization Disruption of Leishmania infantum Trypanothione Reductase by Triazole-phenyl-thiazoles” (Journal of Medicinal Chemistry, 2021):
Like-named read-outs stand apart in the source and are kept apart here. Non-standard residues stand in square brackets, D forms with d. Residues, ends and D or L forms follow the SMILES beside them. Nle = CCCC[C@H](N)C(=O)O

How the values were obtained:
LiTryR = target: T1, LiTryR (Leishmania infantum, UniProt A4HSF7); assay: biochemical; type: biochemical; details: LiTryR; 1 μM TS2; maximum assayed 75 μM; read-out: IC50^act, TryR oxidoreductase activity
T1 construct: HIS (N); made in house; host or cells: E. coli BL21 (DE3) Rossetta
Description: A concentration of 1 μM TS2 was used for this initial screening. This low substrate concentration is sufficient for comparison of compound inhibitory activity in the oxidoreductase assay.
Recombinant L. infantum TryR (LiTryR) HIS-tagged and HIS-FLAG-tagged versions were used for all LiTryR oxidoreductase activity and dimer quantitation assays. These LiTryR versions were purified from Escherichia coli as previously described.[25] Briefly, pRSETA-HIS-LiTryR construct alone or in combination with the pET24a-FLAG-LiTryR construct was transformed into BL21 (DE3) Rossetta E. coli strain. An overnight E. coli culture grown at 37 °C in Luria–Bertani (LB) medium with the appropriate antibiotics and vigorous shaking was diluted (1:100) in the same medium and allowed to grow in the same conditions until the OD600 was 0.5. Then, LiTryR expression was induced by addition of 1 mM isopropyl-β-D-1-thiogalactopyranoside (IPTG) for 16 h at 26 °C. The cells were centrifuged for 5 min at 9000g and 4 °C and the wet pellet resuspended in lysis buffer (50 mM Tris, pH 7, 300 mM NaCl, 25 mM imidazole, protease inhibitor cocktail, and 1 mg/mL lysozyme). […] The supernatant was sonicated again as previously described for 10 min and loaded on a HisTrap column (GE Healthcare, Chicago, IL) for 16 h at 4 °C using a P-1 peristaltic pump (GE Healthcare, Chicago, IL). Once loaded, the HisTrap column was connected to an ÄKTA purifier UPC 10 (GE Healthcare, Chicago, IL) and washed using a 5–10% gradient between buffer A (50 mM Tris, pH 7 and 300 mM NaCl) and B (50 mM Tris, pH 7, 300 mM NaCl, and 500 mM imidazole). LiTryR was eluted using a 40% gradient between buffers A and B. Fractions containing recombinant LiTryR were pooled and loaded into a HiPrep 26/10 Desalting column (GE Healthcare, Chicago, IL) previously equilibrated with buffer A. Finally, LiTryR was concentrated to 2 mg/mL using an Amicon Ultra-15 50K (Merck Millipore, Burlington, MA) and an equal volume of glycerol was added before storing at −20 °C.
TryR oxidoreductase activity was determined spectrophotometrically using a modified version of the DTNB-coupled assay described by Hamilton et al.[52] Briefly, reactions were carried out at 26 °C in 250 μL of N-(2-hydroxyethyl)piperazine-N′-ethanesulfonic acid (HEPES) buffer (pH 7.5, 40 mM) containing ethylenediaminetetraacetic acid (EDTA) (1 mM), NADP^+ (30 μM), DTNB (25 μM), TS2 (1 μM), NADPH (150 μM), glycerol (0.02%), DMSO (1.75%), and recombinant TryR (7 nM). […] Reactions were started by addition of a mixture of NADPH and TS2.
TryR oxidoreductase activity was monitored at 26 °C by an increase in absorbance at 412 nm in an EnSpire Multimode Plate Reader (PerkinElmer, Waltham, MA). […] (TNB) concentration was obtained by multiplying the absorbance values by 100 (50 μM TNB generates 0.5 arbitrary units of absorbance at 412 nm). In this DTNB-coupled assay, one molecule of T(SH)2 reduces one molecule of DTNB, producing two TNB molecules. All of the assays were conducted in at least three independent experiments. Data were analyzed using a nonlinear regression model with GraFit 6 software (Erithacus, Horley, Surrey, U.K.).

LiTryR dimer = target: T2, LiTryR dimer (Leishmania infantum, UniProt A4HSF7); assay: biochemical; details: 400 nM LiTryR, 16 h at 37 °C; read-out: IC50^dim, LiTryR monomer displacement (dimer quantitation ELISA)
T2 construct: made in house; host or cells: E. coli BL21 (DE3) Rossetta (co-transformed with both plasmids)
Description: The stability of the LiTryR dimeric form in the presence of 1,2,3-triazole-phenyl-thiazole-based compounds was evaluated using the novel enzyme-linked immunosorbent assay (ELISA) developed in our laboratory.[25] […] Next, the different solutions were centrifuged at 18 000g for 15 min at room temperature. The supernatants (200 μL/well) were added to the α-FLAG-coated plates (Sigma-Aldrich, St. Louis, MO) and incubated for 30 min at 37 °C with agitation in a humid atmosphere. The plates were washed five times with TTBS buffer (2 mM Tris, pH 7.6, 138 mM NaCl, and 0.1% Tween-20) and incubated with diluted monoclonal α-HIS horseradish peroxidase (HRP)-conjugated antibody (200 μL, 1:50 000, Abcam, Cambridge, U.K.) in fatty acid- and essentially globulin-free bovine serum albumin (BSA) (5%) prepared in TTBS buffer for 1 h at room temperature. The plates were washed five times, and o-phenylenediamine dihydrochloride (OPD) substrate prepared according to the manufacturer’s instructions was added. The enzymatic reaction was stopped after 5 min with H2SO4 (100 μL, […]), and the absorbances were measured at 490 nm in an EnSpire Multimode Plate Reader (PerkinElmer, Waltham, MA). All of the assays were conducted in triplicate in at least three independent experiments. Data were analyzed using a nonlinear regression model with GraFit 6 software (Erithacus, Horley, Surrey, U.K.).

[1] = test system: L. infantum promastigotes; assay: Leishmanicidal activity on promastigotes (PI exclusion, flow cytometry); type: cell-based, Leishmania infantum; details: for SIp (ratio of EC50 against human cells to EC50 against promastigotes): HepG2 / promastigotes; for EC50: Leishmania infantum
Description: (§1) L. infantum promastigotes (MCAN/ES/89/IPZ229/1/89) were grown in Roswell Park Memorial Institute (RPMI)-1640 medium (Sigma-Aldrich, St. Louis, MO) supplemented with 10% heat-inactivated fetal calf serum (FCS), antibiotics, and 25 mM HEPES (pH 7.2) at 26 °C. L. infantum axenic amastigotes (MCAN/ES/89/IPZ229/1/89) were grown in M199 medium (Invitrogen, Leiden, The Netherlands) supplemented with 10% heat-inactivated FCS, 1 g/L β-alanine, 100 mg/L L-asparagine, 200 mg/L sucrose, 50 mg/L sodium pyruvate, 320 mg/L malic acid, 40 mg/L fumaric acid, 70 mg/L succinic acid, 200 mg/L α-ketoglutaric acid, 300 mg/L citric acid, 1.1 g/L sodium bicarbonate, 5 g/L morpholineethanesulfonic acid (MES), 0.4 mg/L hemin, and 10 mg/L gentamicine, pH 5.4, at 37 °C.
(§2) Drug treatment of L. infantum promastigotes was performed during the logarithmic growth phase at a concentration of 2 × 10^6 parasites/mL at 26 °C for 24 h. […] EC50 was evaluated by flow cytometry by the propidium iodide (PI) exclusion method. After selection of the parasite population based on their forward scatter (FSC) and side scatter (SSC) values, live and dead parasite cells were identified by their permeability to PI. All of the assays were conducted in triplicate in at least three independent experiments. Data were analyzed using a nonlinear regression model with GraFit 6 software (Erithacus, Horley, Surrey, U.K.).

[2] = test system: L. infantum axenic amastigotes; assay: Leishmanicidal activity on axenic amastigotes (PI exclusion, flow cytometry); type: cell-based, Leishmania infantum; details: for SIa (ratio of EC50 against human cells to EC50 against amastigotes): HepG2 / axenic amastigotes; for EC50: Leishmania infantum, axenic amastigotes, 24 h at 37 °C, read-out: EC50 amastigotes
Description: as §1
Axenization was performed by diluting 0.5 mL of a 7-day stationary phase culture of L. infantum promastigotes (2–3 × 10^7 parasites/mL) in 4.5 mL of amastigotes medium and incubating the culture at 37 °C for 2 or 3 days. L. infantum axenic amastigotes apparition was followed by phase-contrast microscopy using an Eclipse Ti inverted microscope (Nikon, Tokyo, Japan).
as §2

HepG2 cells = assay: Cellular toxicity, crystal violet assay; type: cell-based; details: Homo sapiens, HepG2; 24 h, crystal violet method; read-out: EC50 HepG2
Description: Liver hepatocellular carcinoma HepG2 cells were grown in Dulbecco’s modified Eagle’s medium (DMEM) (Sigma-Aldrich, St. Louis, MO) with 10% heat-inactivated FCS, antibiotics, and 10 mM HEPES.
Drug treatment of liver hepatocellular carcinoma HepG2 cells was performed at a concentration of 10^5 cells/mL at 37 °C and 5% CO2 for 24 h. EC50 was evaluated by the crystal violet assay. Briefly, cells were washed with phosphate-buffered saline (PBS) and stained with 200 μL of crystal violet solution (0.2% crystal violet, 2% ethanol) for 10 min at room temperature. Next, the plates were washed twice with tap water and allowed to dry. The stained cells were solubilized with 400 μL of 1% sodium dodecyl sulfate (SDS), and the color intensity was quantified at 570 nm using an EnSpire Multimode Plate Reader (PerkinElmer, Waltham, MA). All of the assays were conducted in triplicate in at least three independent experiments. Data were analyzed using a nonlinear regression model with GraFit 6 software (Erithacus, Horley, Surrey, U.K.).

[3] = 24 h at 26 °C, read-out: EC50 promastigotes
[4] = promastigotes or amastigotes (either form), read-out: EC50 against Leishmania promastigotes or amastigotes

T1 sequence (A4HSF7 1-491): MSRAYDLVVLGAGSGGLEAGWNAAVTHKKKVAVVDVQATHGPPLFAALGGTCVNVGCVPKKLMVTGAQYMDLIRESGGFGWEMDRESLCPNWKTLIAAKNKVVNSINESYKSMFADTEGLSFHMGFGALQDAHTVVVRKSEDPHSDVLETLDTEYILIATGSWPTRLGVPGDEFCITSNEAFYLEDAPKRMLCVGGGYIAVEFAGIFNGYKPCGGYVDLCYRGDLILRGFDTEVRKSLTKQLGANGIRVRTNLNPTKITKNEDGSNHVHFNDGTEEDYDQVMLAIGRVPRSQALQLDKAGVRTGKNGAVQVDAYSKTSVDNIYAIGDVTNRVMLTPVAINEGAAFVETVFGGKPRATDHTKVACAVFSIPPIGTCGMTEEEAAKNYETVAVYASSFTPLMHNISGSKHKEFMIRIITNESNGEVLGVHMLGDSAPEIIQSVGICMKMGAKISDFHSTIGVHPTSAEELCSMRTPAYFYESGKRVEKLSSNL
T2 sequence (A4HSF7 1-491): as above

SMILES	IC50 (LiTryR)	IC50 (LiTryR dimer)	SIp (ratio of EC50 against human cells to EC50 against promastigotes) [1]	EC50 [1, 3]	SIa (ratio of EC50 against human cells to EC50 against amastigotes) [2]	EC50 [2]	EC50 (HepG2 cells)	EC50 [1, 4]
O=C1NCCN1CCOc1cc(-n2cc(CCCCO)nn2)ccc1-c1nc(CCc2ccccc2)cs1 [12d]	> 75 µM	> 75 µM						
NCCCc1cn(-c2ccc(-c3nc(CCc4ccccc4)cs3)c(OCCN3CCNC3=O)c2)nn1.O=C(O)C(F)(F)F [12h]	20.8 ± 2.3 µM	> 75 µM	2.0	12.7 ± 0.3 µM	< 1	31.6 ± 5.8 µM	25.7 ± 2.2 µM	
NCCCCc1cn(-c2ccc(-c3nc(Cc4ccccc4)cs3)c(OCCN3CCNC3=O)c2)nn1 [12o]				> 75 µM		> 75 µM	67.9 ± 1.5 µM	
CC(C)(C)Cc1csc(-c2ccc(-n3cc(CCCCN)nn3)cc2OCCN2CCNC2=O)n1.O=C(O)C(F)(F)F [12m]	24.1 ± 1.4 µM	> 75 µM	1.0	42.6 ± 3.9 µM	1.8	25.2 ± 0.5 µM	44.9 ± 1.3 µM	
CCCC[C@H](NC(=O)[C@H](CCCCN)NC(=O)[C@H](CCCC)NC(=O)[C@H](CO)NC(=O)[C@@H](NC(=O)CNC(=O)[C@@H](NC(=O)[C@H](CO)NC(=O)[C@H](CCC(N)=O)NC(=O)[C@@H](NC(=O)[C@@H](NC(=O)[C@H](CCCCN)NC(=O)[C@@H]1CCCN1C(=O)[C@H](CCCNC(=N)N)NC(=O)[C@H](CCCNC(=N)N)NC(=O)[C@H](CCCNC(=N)N)NC(=O)[C@H](CCCNC(=N)N)NC(=O)[C@H](CCCNC(=N)N)NC(=O)[C@H](CCCNC(=N)N)NC(=O)[C@H](CCCNC(=N)N)NC(=O)[C@H](CCCNC(=N)N)NC(=O)[C@H](CCCNC(=N)N)NC(C)=O)[C@@H](C)CC)[C@@H](C)CC)C(C)C)[C@@H](C)CC)C(N)=O [R9-peptide 1, reference compound] (Ac-RRRRRRRRRPKIIQSVGIS[Nle]K[Nle]-NH2; N-terminus and C-terminus assumed)			19.9		18.1			
CC(C)Oc1csc(-c2ccc(-n3cc(CCCCN)nn3)cc2OCCN2CCNC2=O)n1 [12l]	54.5 ± 4.4 µM	> 75 µM						
N#Cc1ccc(-n2cc(CCCCN)nn2)cc1OCCN1CCNC1=O [compound 14]	> 75 µM	> 75 µM						
NCCCCc1cn(-c2ccc(-c3nc(CCc4ccc(-c5ccccc5)cc4)c(-c4ccccc4)s3)c(OCCN3CCNC3=O)c2)nn1.O=C(O)C(F)(F)F [19d, 1-(2-(2-(4-(2-([1,1′-Biphenyl]-4-yl)ethyl)-5-phenyl-thiazol-2-yl)-5-(4-(4-ammoniobutyl)-1H-1,2,3-triazol-1-yl)phenoxy)ethyl)imidazolidin-2-one 2,2,2-Trifluoroacetate]	19.8 ± 2.3 µM	5.7 ± 0.5 µM			ND/1.3	9.1 ± 0.2 µM	12.1 ± 0.1 µM	< 10 µM
NCCCCc1cn(-c2ccc(-c3nc(CCc4ccc(Oc5ccccc5)cc4)c(-c4ccccc4)s3)c(OCCN3CCNC3=O)c2)nn1.O=C(O)C(F)(F)F [19e, 1-(2-(2-(4-(2-([4-Phenyloxyphenyl]-1-yl)ethyl)-5-phenyl-thiazol-2-yl)-5-(4-(4-ammoniobutyl)-1H-1,2,3-triazol-1-yl)phenoxy)ethyl)imidazolidin-2-one 2,2,2-Trifluoroacetate]	19.3 ± 3.7 µM	6.7 ± 1 µM			ND/<1	8.4 ± 0.1 µM	6.6 ± 0.6 µM	< 10 µM
CCCCc1cn(-c2ccc(-c3nc(CCc4ccccc4)cs3)c(OCCN3CCNC3=O)c2)nn1 [12e]	> 75 µM	> 75 µM						
CCCCc1cn(-c2ccc(-c3nc(CCc4ccc(-c5ccccc5)cc4)cs3)c(OCCN3CCNC3=O)c2)nn1 [12f]	> 75 µM	> 75 µM						
O=C1NCCN1CCOc1cc(Br)ccc1-c1nc(CCc2ccccc2)cs1 [compound 13]	> 75 µM	> 75 µM						
COc1cc(-n2cc(CCCCN)nn2)ccc1-c1nc(CCc2ccc(-c3ccccc3)cc2)cs1.O=C(O)C(F)(F)F [12k]	26.8 ± 5.7 µM	16.1 ± 0.7 µM			ND/1.9	4 ± 0.2 µM	7.4 ± 0.6 µM	
